Data set [1] deals with Staph. albus. Description: In vitro antibacterial activity (MIC), compound I versus 1:1 combination with amoxicillin (Table 3). Conditions: 1 strain, compound I alone. Type of data set: cell-based.
For data set [2], the system named is Staph. albus. Description: Minimal inhibitory concentrations (MIC) against amoxicillin resistant bacteria (Table 1). The format is cell-based. The settings on record: 1 strain.
In the next data set the test system is Salmonella enteriditis. Description: In vitro antibacterial activity (MIC), compound I versus 1:1 combination with amoxicillin (Table 3). Conditions: 2 strains, average value, compound I alone. Type of data set: cell-based.
A further data set concerns Citrob. freundii. The description is as above. The format is cell-based. Conditions: Citrobacter freundii, 2 strains, average value, compound I alone.
The test system of a further data set is Pseudomas aeruginosa. In words: Minimal inhibitory concentrations (MIC) against amoxicillin resistant bacteria (Table 1). The format is cell-based. The settings on record: 5 strains.
The subject of another data set is Pseudomonas aeruginosa. In words: In vitro antibacterial activity (MIC), compound I versus 1:1 combination with amoxicillin (Table 3). The format is cell-based. The settings on record: 5 strains, average value, compound I alone.
In data set [3] the test system is CSH28F'lacproxZM46 (plasmid F'lacpro, Inc FI). Description: Inhibition of plasmid transfer by conjugation. The format is cell-based, E. coli. The settings on record: Escherichia coli. The source says:
(§1) Another advantageous feature of compound I resides in its ability to inhibit the transfer of bacterial plasmids by conjugation, said ability being shared by other compounds of quinoline structure and being important since it interferes with transmission of bacterial resistance.
(§2) Phenotype symbols according Novick et al. (1976) were used.
(§3) The following antibiotics were used: streptomycin (Sm), tetracycline (Tc), ampicillin (Ap), kanamycin (Km) and rifampicin (Rif). Compound I in 1 and 10 mcg/ml concentrations was used in the transfer mixtures. • - Microorganisms were grown in Nutrient Broth (B.B.L.), NB, or in Nutrient Agar or Mc Conkey Agar (B.B.L.). Appropriate antibiotic concentrations were added to the selection plates. Sm 10, Tc 10, Ap 30, Km 30, Rif 100 and Nal 50. • - Bacterial strains were incubated till 2.5 x 10^8 cells/ml of nutrient broth exponential phase, and crossed in a donor/recipient 1:5 ratio in 2 x broth during 18 hours at 37°C. On the other hand, in the interrupted crosses, the bacteria were stirred by means of the Vortex apparatus for 1 minute after 1 h cross. • - About one hundred colonies, which could growth on the selection plates (containing the various antibiotics) were checked for the resistance spectrum by "replica plating". • - The transfer frequence was expressed as the number of resistent recipients in comparison with the number of donors in the mating mixtures, at the plating time. The inhibition rate of plasmid transfer was evaluated in tests in which, in the mating mixtures, compound I was present in 1 or 10 mcg/ml concentrations.
(§4) The activity of compound I was tested in different cross systems between E. coli x E. coli.

Data set [4] deals with UR10(R446)xZM46 (plasmid R446, Inc M). In words: Inhibition of plasmid transfer by conjugation. The format is cell-based, E. coli. The settings on record: Escherichia coli.
Excerpt: as §1, §2, §3, §4

Data set [5] deals with CSH50(RP4)xZM46 (plasmid RP4, Inc P). Description: Inhibition of plasmid transfer by conjugation. The format is cell-based, E. coli. The settings on record: Escherichia coli.
Excerpt: as §1, §2, §3, §4

Data set [6] relates to ß-Lactamase isolated from: B. cereus. In words: Inhibition of hydrolysis rates of ß-lactamases. Type of data set: biochemical. The procedure:
(§5) In order to further evaluate its therapeutic potentiality, compound I was tested for any inhibitory activity against B-lactamases.

Data set [7] relates to ß-Lactamase isolated from: E. coli. Description: Inhibition of hydrolysis rates of ß-lactamases. The format is biochemical. The procedure: as §5
Data set [8] relates to B-lactamases from both Gram-positive and Gram-negative bacteria. In words: Inhibitory activity against B-lactamases. Type of data set: biochemical. The settings on record: dosage of 100 δ. The procedure:
as §5

Data set [9] has as its system tryptic enzymes (trypsin, pepsin, etc.). Description: Stability to tryptic enzymes. The format is in vitro ADME.
A further data set deals with Proteus rettgeri. Description: In vitro antibacterial activity (MIC), compound I versus 1:1 combination with amoxicillin (Table 3). The settings on record: Providencia rettgeri, 1 strain, compound I alone. The format is cell-based.
A further data set concerns Staph. aureus coag. pos. In words: Minimal inhibitory concentrations (MIC) against amoxicillin resistant bacteria (Table 1). Type of data set: cell-based. The settings on record: Staphylococcus aureus, 4 strains.
For data set [10], the system named is E. coli. The data set is described as above. Type of data set: cell-based. Conditions: Escherichia coli, 6 strains.
Another data set deals with Proteus mirabilis. Described as above. The format is cell-based. Conditions: 3 strains.
The next data set deals with Enterob. cloacee. Description: In vitro antibacterial activity (MIC), compound I versus 1:1 combination with amoxicillin (Table 3). Conditions: 2 strains, average value, compound I alone. Type of data set: cell-based.
A further data set concerns Staph. aureus. The data set is described as above. The settings on record: Staphylococcus aureus, 8 strains, average value, compound I alone. The format is cell-based.
The next data set has as its system Klebsiella pneumoniae. Described as above. The format is cell-based. The settings on record: 4 strains, average value, compound I alone.
Another data set relates to Staph. aureus CH1. In words: Minimal inhibitory concentrations (MIC) against amoxicillin resistant bacteria (Table 1). Type of data set: cell-based. Conditions: Staphylococcus aureus, Staph. aureus CH1, 1 strain.
The test system of data set [11] is Serratia marcescens. The data set is described as above. The format is cell-based. The settings on record: 2 strains.
The subject of a further data set is B-lactamases. In words: Stability to B-lactamases. The format is in vitro ADME.
The test system of data set [12] is E. coli. Description: In vitro antibacterial activity (MIC), compound I versus 1:1 combination with amoxicillin (Table 3). Type of data set: cell-based. Conditions: Escherichia coli, 2 strains, average value, compound I alone.
In data set [13] the test system is Serratia marcescens. Described as above. Type of data set: cell-based. Conditions: 2 strains, average value, compound I alone.
Data set [14] deals with Gram-positive and Gram-negative strains resistant to amoxicillin alone. In words: MIC of amoxicillin alone against the resistant strains of Table 3. The format is cell-based.

Consider two compounds from patent EP0203559A1, “Penicillin derivative containing naphthyridine” (AUSONIA FARMACEUTICI S.r.l., priority 1985, dated 1986).

≈ marks a conversion by molar mass, not a printed value.

As to `CCn1cc(C(=O)NC(C(=O)NC2C(=O)N3C2SC(C)(C)C3C(=O)O)c2ccc(O)cc2)c(=O)c2ccc(C)nc21` [Compound I, D-(-)-α-[(1-ethyl-1,4-dihydro-7-methyl-4-oxo-1,8-naphthyridine-3-carboxyamido)-α-(p-hydroxyphenyl)-acetamido]penicil lanic acid], the MIC with Staph. albus [1] came out at 6.25 µg/mL; in the data set with Staph. albus [2], 6.25 µg/mL (≈ 10.8 µM); in the data set on Salmonella enteriditis, 100 µg/mL; in the data set with Citrob. freundii it was 100 µg/mL; in the data set on Pseudomas aeruginosa, 50 µg/mL (≈ 86.3 µM); in the data set on Pseudomonas aeruginosa, 50 µg/mL. Further, the minimal inhibitory concentration (MIC) in the data set on Proteus rettgeri is 50 µg/mL; against Staph. aureus coag. pos., 3.12 µg/mL (≈ 5.38 µM); with E. coli [10] it was 25 µg/mL (≈ 43.1 µM); against Proteus mirabilis, 25 µg/mL (≈ 43.1 µM); in the data set with Enterob. cloacee it was 100 µg/mL; in the data set on Staph. aureus it was 10.3 µg/mL. Moreover, the MIC in the data set with Klebsiella pneumoniae was 87.5 µg/mL; in the data set on Staph. aureus CH1, 1.56 µg/mL (≈ 2.69 µM); in the data set on Serratia marcescens [11], 50 µg/mL (≈ 86.3 µM); in the data set on E. coli [12], 75 µg/mL; in the data set with Serratia marcescens [13], 50 µg/mL. In addition, the inhibition at 1 µg/mL was 40.2% in data set [3], 19.1% in data set [4] and 36.4% in [5]. For the same compound, the inhibition at 10 µg/mL in [3] stood at 69.7%; in data set [4] it was 74.5%; in data set [5] it was 66.2%. Moreover, the “% inhibition” value in data set [6] (Conc. 50 γ/ml) was found to be 50%; in data set [6] (Conc. 75 γ/ml) it was 90%; in [6] (Conc. 100 γ/ml) it was 100%; in data set [7] (Conc. 50 γ/ml) it was 50%; in data set [7] (Conc. 75 γ/ml), 90%; in data set [7] (Conc. 100 γ/ml) it was 100%. Further, the “inhibition of enzymatic activity of B-lactamases” value in data set [8] is “completely inhibiting any enzymatic activity”. The “stability to tryptic enzymes (trypsin, pepsin, etc.)” value in data set [9] was “stable to tryptic enzymes”. Further, the “stability to B-lactamases” value in the data set with B-lactamases is reported as “stable to B-lactamases”.

Take `CC1(C)S[C@@H]2[C@H](NC(=O)[C@H](N)c3ccc(O)cc3)C(=O)N2[C@H]1C(=O)O` [amoxicillin]: the MIC in [14] is no less than 800 µg/mL.

Broadly, the MIC is the lowest concentration found to suppress growth. The term inhibition denotes how much of the control response was suppressed. In general, % inhibition refers to the relative decrease from the control value, in per cent.
